Values of other authors in EP3331513B1, “HYDROALCOHOLIC SOLUTIONS COLOURED WITH CHLORHEXIDINE, METHODS FOR THE PRODUCTION THEREOF, AND USES OF SAME” (Université Claude Bernard Lyon I, priority 2015, dated 2017).

- solubilité dans les alcools (alcools primaires en C2 et C3, notamment éthanol): assez soluble
- solubilité dans l'eau (eau): miscible à l'eau
SMILES: [H]/N=C(\N/C(=N/[H])NCCCCCCNC(=N)NC(=N)Nc1ccc(Cl)cc1)Nc1ccc(Cl)cc1 [digluconate de chlorhexidine]
